Assay results reported in article PMC7914897, “Cytotoxic Potential of a-Azepano- and 3-Amino-3,4-SeCo-Triterpenoids” (International Journal of Molecular Sciences, 2021).
Like-named read-outs stand apart in the source and are kept apart here.

What was measured:
[1] = test system: A2780 (ovarian carcinoma); assay: SRB cytotoxicity assay, 72 h; type: cell-based, human; settings: A2780, 72 h, cut-off 30 µM
Method in brief: (§1)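 Following 24 h attachment, cells received serially diluted compounds up to 30 µM for 72 h, with DMSO kept at or below 0.5%. TCA-fixed cells were SRB-stained and absorbance recorded at 570 nm to derive EC50 values.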

[2] = test system: A375 (malignant melanoma); assay: SRB cytotoxicity assay, 72 h; type: cell-based, human; settings: A375, 72 h, cut-off 30 µM
Method in brief: as §1

[3] = test system: FaDu (hypopharyngeal carcinoma); assay: SRB cytotoxicity assay, 72 h; type: cell-based, human; settings: cut-off 30 µM
Method in brief: as §1

[4] = test system: HT29 (colorectal carcinoma); assay: SRB cytotoxicity assay, 72 h; type: cell-based, human; settings: HT29, 72 h, cut-off 30 µM
Method in brief: as §1

MCF-7 (breast carcinoma) = assay: SRB cytotoxicity assay, 72 h; type: cell-based, human; settings: MCF-7, 72 h, cut-off 30 µM
Method in brief: as §1

SR (Leukemia) = assay: NCI-60 screen (SRB, 48 h); type: cell-based
MDA-MB-435 (Melanoma) = assay: NCI-60 screen (SRB, 48 h); type: cell-based; settings: Homo sapiens; for GI50 / CC50: MDA-MB-435; for IC (TGI): MDA-MB-435, 48 h, read-out: TGI; for CC50: read-out: LC50 (the source's name)
OVCAR-4 (Ovarian cancer) = assay: NCI-60 screen (SRB, 48 h); type: cell-based; settings: Homo sapiens; for IC (TGI): OVCAR-4, 48 h
BT-549 (Breast cancer) = assay: NCI-60 screen (SRB, 48 h); type: cell-based; settings: Homo sapiens; for IC (TGI): BT-549, 48 h
[5] = test system: MDA-MB-468 (Breast cancer); assay: cells; settings: Homo sapiens; for GI50: MDA-MB-468; for IC (TGI): MDA-MB-468, 48 h, read-out: TGI; for CC50: MDA-MB-468, read-out: LC50
NSC lung cancer subpanel = assay: NCI-60 screen, subpanel; settings: Homo sapiens; for IC (TGI): 48 h, read-out: TGI MG_MID; for GI50: read-out: GI50 MG_MID; for CC50: read-out: LC50 MG_MID
Melanoma subpanel = assay: NCI-60 screen, subpanel; settings: Homo sapiens; for IC (TGI): 48 h, read-out: TGI MG_MID; for GI50: read-out: GI50 MG_MID; for CC50: read-out: LC50 MG_MID
Breast cancer subpanel = assay: NCI-60 screen, subpanel; settings: Homo sapiens; for IC (TGI): 48 h, read-out: TGI MG_MID; for GI50: read-out: GI50 MG_MID; for CC50: read-out: LC50 MG_MID
RPMI-8226 (Leukemia) = assay: NCI-60 screen (SRB, 48 h); settings: Homo sapiens; for GI50: RPMI-8226; for IC (TGI): RPMI-8226, 48 h, read-out: TGI
[6] = test system: NCI-H23 (NSC lung cancer); assay: NCI-60 screen (SRB, 48 h); settings: Homo sapiens; for GI50: NCI-H23; for IC (TGI): NCI-H23, 48 h, read-out: TGI; for CC50: NCI-H23, read-out: LC50
[7] = test system: NCI-H460 (NSC lung cancer); assay: NCI-60 screen (SRB, 48 h); settings: Homo sapiens; for GI50: NCI-H460; for IC (TGI): NCI-H460, 48 h, read-out: TGI; for CC50: NCI-H460, read-out: LC50
[8] = test system: NCI-H522 (NSC lung cancer); assay: NCI-60 screen (SRB, 48 h); settings: Homo sapiens; for GI50: NCI-H522; for IC (TGI): NCI-H522, 48 h, read-out: TGI
HCC-2998 (Colon cancer) = assay: NCI-60 screen (SRB, 48 h); settings: Homo sapiens; for GI50: HCC 2998; for IC (TGI): HCC 2998, 48 h, read-out: TGI
SF-268 (CNS cancer) = assay: NCI-60 screen (SRB, 48 h); settings: Homo sapiens; for GI50: SF-268; for IC (TGI): SF-268, 48 h, read-out: TGI; for CC50: SF-268, read-out: LC50
SF-539 (CNS cancer) = assay: NCI-60 screen (SRB, 48 h); settings: Homo sapiens; for GI50: SF-539; for IC (TGI): SF-539, 48 h, read-out: TGI; for CC50: SF-539, read-out: LC50
SK-MEL-5 (Melanoma) = assay: NCI-60 screen (SRB, 48 h); settings: Homo sapiens; for GI50: SK-MEL-5; for IC (TGI): SK-MEL-5, 48 h, read-out: TGI; for CC50: SK-MEL-5, read-out: LC50
UACC-257 (Melanoma) = assay: NCI-60 screen (SRB, 48 h); settings: Homo sapiens; for GI50: UACC-257; for IC (TGI): UACC-257, 48 h, read-out: TGI; for CC50: UACC-257, read-out: LC50
OVCAR-8 (Ovarian cancer) = assay: NCI-60 screen (SRB, 48 h); settings: for GI50 / IC (TGI): Homo sapiens; for GI50: OVCAR-8; for IC (TGI): OVCAR-8, 48 h, read-out: TGI
786-0 (Renal cancer) = assay: NCI-60 screen (SRB, 48 h); settings: for GI50: 786-0; for IC (TGI): 786-0, 48 h, read-out: TGI
ACHN (Renal cancer) = assay: NCI-60 screen (SRB, 48 h); settings: Homo sapiens; for IC (TGI): 48 h, read-out: TGI; for CC50: read-out: LC50

CC1(C)CC[C@]23CC[C@]4(C)[C@H](CC[C@@H]5[C@@]6(C)CCCNC(C)(C)[C@@H]6CC[C@]54C)[C@H]2[C@H]1OC3 [Compound 7, Azepanoallobetulin]
EC50 [1]: n.s.
EC50 [2]: n.s.
EC50 [3]: n.s.
EC50 [4]: n.s.
EC50 (MCF-7 (breast carcinoma)): n.s.
TGI (SR (Leukemia)): 4.12 µM
GI50 (SR (Leukemia); Homo sapiens): 1.49 µM
CC50 (SR (Leukemia); Homo sapiens, read-out: LC50 (the source's name)): > 100 µM
GI50 (MDA-MB-435 (Melanoma)): 1.65 µM
IC (TGI) (MDA-MB-435 (Melanoma)): 3.02 µM
CC50 (MDA-MB-435 (Melanoma)): 5.55 µM
GI50 (OVCAR-4 (Ovarian cancer); OVCAR-4): 1.65 µM
IC (TGI) (OVCAR-4 (Ovarian cancer)): 3.12 µM
CC50 (OVCAR-4 (Ovarian cancer); OVCAR-4, read-out: LC50 (the source's name)): 5.88 µM
GI50 (BT-549 (Breast cancer); BT-549): 1.68 µM
IC (TGI) (BT-549 (Breast cancer)): 3.24 µM
GI50 [5]: 1.61 µM
IC (TGI) [5]: 3.45 µM
CC50 [5]: 7.39 µM
IC (TGI) (NSC lung cancer subpanel): 3.28 µM
GI50 (NSC lung cancer subpanel): 1.49 µM
CC50 (NSC lung cancer subpanel): 6.73 µM
IC (TGI) (Melanoma subpanel): 3.37 µM
GI50 (Melanoma subpanel): 1.76 µM
CC50 (Melanoma subpanel): 6.52 µM
IC (TGI) (Breast cancer subpanel): 3.55 µM
GI50 (Breast cancer subpanel): 1.68 µM
CC50 (Breast cancer subpanel): 6.06 µM
GI50 (RPMI-8226 (Leukemia)): 1.94 µM
IC (TGI) (RPMI-8226 (Leukemia)): 4.58 µM
CC50 (RPMI-8226 (Leukemia); RPMI-8226, read-out: LC50): 96.8 µM
GI50 [6]: 1.76 µM
IC (TGI) [6]: 3.5 µM
CC50 [6]: 6.95 µM
GI50 [7]: 0.65 µM
IC (TGI) [7]: 2.2 µM
CC50 [7]: 6.12 µM
GI50 [8]: 1.9 µM
IC (TGI) [8]: 3.77 µM
CC50 ([8]; NCI-H522, read-out: LC50): 7.49 µM
GI50 (HCC-2998 (Colon cancer)): 1.54 µM
IC (TGI) (HCC-2998 (Colon cancer)): 2.97 µM
CC50 (HCC-2998 (Colon cancer); HCC 2998, read-out: LC50): 5.72 µM
GI50 (SF-268 (CNS cancer)): 2.04 µM
IC (TGI) (SF-268 (CNS cancer)): 5.31 µM
CC50 (SF-268 (CNS cancer)): 31.5 µM
GI50 (SF-539 (CNS cancer)): 1.64 µM
IC (TGI) (SF-539 (CNS cancer)): 3.07 µM
CC50 (SF-539 (CNS cancer)): 5.78 µM
GI50 (SK-MEL-5 (Melanoma)): 1.69 µM
IC (TGI) (SK-MEL-5 (Melanoma)): 3.06 µM
CC50 (SK-MEL-5 (Melanoma)): 5.53 µM
GI50 (UACC-257 (Melanoma)): 1.92 µM
IC (TGI) (UACC-257 (Melanoma)): 3.89 µM
CC50 (UACC-257 (Melanoma)): 7.77 µM
GI50 (OVCAR-8 (Ovarian cancer)): 1.87 µM
IC (TGI) (OVCAR-8 (Ovarian cancer)): 3.66 µM
Growth % of the Most Sensitive Cell Lines (786-0 (Renal cancer); 786-0, 1 dose 10 µM): −96.23%
GI50 (786-0 (Renal cancer); Homo sapiens): 1.66 µM
IC (TGI) (786-0 (Renal cancer); Homo sapiens): 3.21 µM
CC50 (786-0 (Renal cancer); Homo sapiens, 786-0, read-out: LC50): 6.18 µM
GI50 (ACHN (Renal cancer)): 1.71 µM
IC (TGI) (ACHN (Renal cancer)): 3.08 µM
CC50 (ACHN (Renal cancer)): 5.55 µM

CC(C)=C1CCC=C2CC[C@]3(C)[C@H](CC[C@@H]4[C@@]5(C)CCCNC(C)(C)[C@@H]5CC[C@]43C)[C@H]21 [Compound 9]
EC50 ([1]; Homo sapiens, read-out: EC50): 2.19 ± 0.1 µM
EC50 ([2]; Homo sapiens, A-375, 72 h, read-out: EC50): 1.71 ± 0.1 µM
EC50 ([3]; Homo sapiens, read-out: EC50): 1.58 ± 0.2 µM
EC50 ([4]; Homo sapiens, HT-29, read-out: EC50): 1.18 ± 0.1 µM
EC50 (MCF-7 (breast carcinoma); Homo sapiens, MCF7, read-out: EC50): 1.52 µM
TGI (SR (Leukemia)): 3.16 µM
GI50 (SR (Leukemia); Homo sapiens): 1.14 µM
GI50 (MDA-MB-435 (Melanoma)): 1.85 µM
IC (TGI) (MDA-MB-435 (Melanoma)): 3.28 µM
CC50 (MDA-MB-435 (Melanoma)): 5.81 µM
IC (TGI) (OVCAR-4 (Ovarian cancer)): 3.6 µM
GI50 (OVCAR-4 (Ovarian cancer); OVCAR-4, read-out: GI50): 1.99 µM
GI50 (BT-549 (Breast cancer); BT-549): 1.66 µM
IC (TGI) (BT-549 (Breast cancer)): 3.14 µM
CC50 (BT-549 (Breast cancer); BT-549, read-out: LC50 (the source's name)): 5.96 µM
GI50 [5]: 1.68 µM
IC (TGI) [5]: 3.3 µM
CC50 [5]: 6.5 µM
IC (TGI) (NSC lung cancer subpanel): 3.27 µM
GI50 (NSC lung cancer subpanel): 1.68 µM
CC50 (NSC lung cancer subpanel): 6.11 µM
IC (TGI) (Melanoma subpanel): 3.3 µM
GI50 (Melanoma subpanel): 1.77 µM
CC50 (Melanoma subpanel): 6.17 µM
IC (TGI) (Breast cancer subpanel): 3.49 µM
GI50 (Breast cancer subpanel): 1.72 µM
CC50 (Breast cancer subpanel): 7.06 µM
GI50 (RPMI-8226 (Leukemia)): 2.06 µM
IC (TGI) (RPMI-8226 (Leukemia)): 4.1 µM
GI50 [6]: 1.78 µM
IC (TGI) [6]: 3.37 µM
CC50 [6]: 6.39 µM
GI50 [7]: 1.48 µM
IC (TGI) [7]: 3.09 µM
CC50 [7]: 6.45 µM
GI50 [8]: 1.8 µM
IC (TGI) [8]: 3.44 µM
GI50 (HCC-2998 (Colon cancer)): 1.74 µM
IC (TGI) (HCC-2998 (Colon cancer)): 3.19 µM
GI50 (SF-268 (CNS cancer)): 1.97 µM
IC (TGI) (SF-268 (CNS cancer)): 3.71 µM
CC50 (SF-268 (CNS cancer)): 6.98 µM
GI50 (SF-539 (CNS cancer)): 1.69 µM
IC (TGI) (SF-539 (CNS cancer)): 3.13 µM
CC50 (SF-539 (CNS cancer)): 5.8 µM
GI50 (SK-MEL-5 (Melanoma)): 1.7 µM
IC (TGI) (SK-MEL-5 (Melanoma)): 3.08 µM
CC50 (SK-MEL-5 (Melanoma)): 5.56 µM
GI50 (UACC-257 (Melanoma)): 1.86 µM
IC (TGI) (UACC-257 (Melanoma)): 3.63 µM
CC50 (UACC-257 (Melanoma)): 7.09 µM
GI50 (OVCAR-8 (Ovarian cancer)): 2.01 µM
IC (TGI) (OVCAR-8 (Ovarian cancer)): 4.25 µM
Growth % of the Most Sensitive Cell Lines (OVCAR-8 (Ovarian cancer); OVCAR-8, 1 dose 10 µM): −87.34%
GI50 (786-0 (Renal cancer); Homo sapiens): 1.71 µM
IC (TGI) (786-0 (Renal cancer); Homo sapiens): 3.48 µM
GI50 (ACHN (Renal cancer)): 1.76 µM
IC (TGI) (ACHN (Renal cancer)): 3.14 µM
CC50 (ACHN (Renal cancer)): 5.62 µM
